# Measurements taken from US7745639B2, “Mitotic kinesin inhibitors” (Merck & Co., Inc., priority 2002, dated 2010).
# Biological target: T1, human KSP motor domain (KSP(367H)) (Homo sapiens, UniProt P52732)
# T1 construct: were used to amplify the motor domain and the neck linker region; made in house; host or cells: E. coli BL21 (DE3), vector pRSETa
# T1 sequence (P52732 18-359 limits assumed): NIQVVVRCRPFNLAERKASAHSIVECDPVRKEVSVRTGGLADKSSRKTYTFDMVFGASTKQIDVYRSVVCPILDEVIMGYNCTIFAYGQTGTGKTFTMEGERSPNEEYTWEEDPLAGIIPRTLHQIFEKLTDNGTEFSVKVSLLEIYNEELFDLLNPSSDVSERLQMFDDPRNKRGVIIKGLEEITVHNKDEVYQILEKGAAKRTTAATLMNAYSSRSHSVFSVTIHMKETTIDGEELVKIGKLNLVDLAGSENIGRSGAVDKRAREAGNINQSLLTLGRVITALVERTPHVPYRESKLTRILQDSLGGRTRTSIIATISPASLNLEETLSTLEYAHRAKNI
# Experiment: Kinesin ATPase in vitro assay
# Assay type: biochemical
# Settings: not given
# Excerpt: I. Kinesin ATPase In Vitro Assay
# Cloning and Expression of Human Poly-Histidine Tagged KSP Motor Domain (KSP(367H))
# Plasmids for the expression of the human KSP motor domain construct were cloned by PCR using a pBluescript full length human KSP construct (Blangy et al., Cell, vol.83, pp 1159-1169, 1995) as a template. The N-terminal primer 5′-[…] (SEQ.ID.NO.: 1) and the C-terminal primer 5′-[…] (SEQ.ID.NO.: 2) were used to amplify the motor domain and the neck linker region. The PCR products were digested with AseI and XhoI, ligated into the NdeI/XhoI digestion product of pRSETa (Invitrogen) and transformed into E. coli BL21 (DE3).
# Cells were grown at 37° C. to an OD600 of 0.5. After cooling the culture to room temperature expression of KSP was induced with 100 μM IPTG and incubation was continued overnight. Cells were pelleted by centrifugation and washed once with ice-cold PBS. Pellets were flash-frozen and stored −80° C.
# Cell pellets were thawed on ice and resuspended in lysis buffer (50 mM K-HEPES, pH 8.0, 250 mM KCl, 0.1% Tween, 10 mM imidazole, 0.5 mM Mg-ATP, 1 mM PMSF, 2 mM benzimidine, 1× complete protease inhibitor cocktail (Roche)). Cell suspensions were incubated with 1 mg/ml lysozyme and 5 mM β-mercaptoethanol on ice for 10 minutes, followed by sonication (3×30 sec). All subsequent procedures were performed at 4° C. Lysates were centrifuged at 40,000×g for 40 minutes. Supernatants were diluted and loaded onto an SP Sepharose column (Pharmacia, 5 ml cartridge) in buffer A (50 mM K-HEPES, pH 6.8, 1 mM MgCl2, 1 mM EGTA, […], 1 mM DTT) and eluted with a 0 to 750 mM KCl gradient in buffer A. Fractions containing KSP were pooled and incubated with Ni-NTA resin (Qiagen) for one hour. The resin was washed three times with buffer B (Lysis buffer minus PMSF and protease inhibitor cocktail), followed by three 15-minute incubations and washes with buffer B. Finally, the resin was incubated and washed for 15 minutes three times with buffer C (same as buffer B except for pH 6.0) and poured into a column. KSP was eluted with elution buffer (identical to buffer B except for 150 mM KCl and 250 mM imidazole). KSP-containing fractions were pooled, made 10% in sucrose, and stored at −80° C.
# Microtubules are prepared from tubulin isolated from bovine brain. Purified tubulin (>97% MAP-free) at 1 mg/ml is polymerized at 37° C. in the presence of 10 μM paclitaxel, 1 mM DTT, 1 mM GTP in BRB80 buffer (80 mM K-PIPES, 1 mM EGTA, 1 mM MgCl2 at pH 6.8). The resulting microtubules are separated from non-polymerized tubulin by ultracentrifugation and removal of the supernatant. The pellet, containing the microtubules, is gently resuspended in 10 μM paclitaxel, 1 mM DTT, 50 μg/ml ampicillin, and 5 μg/ml chloramphenicol in BRB80.
# The kinesin motor domain is incubated with microtubules, 1 mM ATP (1:1 MgCl2: Na-ATP), and compound at 23° C. in buffer containing 80 mM K-HEPES (pH 7.0), 1 mM EGTA, 1 mM DTT, 1 mM MgCl2, and 50 mM KCl. The reaction is terminated by a 2-10 fold dilution with a final buffer composition of 80 mM HEPES and 50 mM EDTA. Free phosphate from the ATP hydrolysis reaction is measured via a quinaldine red/ammonium molybdate assay by adding 150 μl of quench C buffer containing a 2:1 ratio of quench A:quench B. Quench A contains 0.1 mg/ml quinaldine red and 0.14% polyvinyl alcohol; quench B contains 12.3 mM ammonium molybdate tetrahydrate in 1.15 M sulfuric acid. The reaction is incubated for 10 minutes at 23° C., and the absorbance of the phospho-molybdate complex is measured at 540 nm.
row,SMILES,IC50 [µM]
1,"CC(=O)N1N=C(c2ccccc2Cl)CC1c1cccc(O)c1 (stereo not drawn) [Compound 1-7, 3-[1-acetyl-3-(2-chlorophenyl)-4,5-dihydro-1H-pyrazol-5-yl]phenyl]",≤ 50

# Same assay, conditions: kinesin motor domain incubated with microtubules, 1 mM ATP and compound at 23° C.; free phosphate by quinaldine red/ammonium molybdate, 540 nm; read-out: IC50
row,IC50 [µM],SMILES
1,≤ 50,"CC(=O)N1N=C(c2cc(F)ccc2F)CC1c1cccc(O)c1 (racemic) [Compound 4-5, 3-[1-acetyl-3-(2,5-difluorophenyl)-4,5-dihydro-1H-pyrazol-5-yl]phenyl]"
2,≤ 50,"CS(=O)(=O)N1N=C(c2cc(F)ccc2F)CC1c1ccccc1 (stereo not drawn) [Compound 8-1, 3-(2,5-difluorophenyl)-1-(methylsulfonyl)-5-phenyl-4,5-dihydro-1H-pyrazole]"
3,≤ 50,"CCNC(=O)N1N=C(c2cc(F)ccc2F)CC1(CCCN(C)C)c1ccccc1 (stereo not drawn) [Compound 9-2, 3-(2,5-difluorophenyl)-5-[3-(dimethylamino)propyl]-N-ethyl-5-phenyl-4,5-dihydro-1H-pyrazole-1-carboxamide]"
4,≤ 50,"CN(C)C(=O)N1N=C(c2cc(F)ccc2F)CC1(CCC(N)c1ccccc1)c1ccccc1 (stereo not drawn) [Compound 11-2, 5-(3-amino-3-phenylpropyl)-3-(2,5-difluorophenyl)-N,N-dimethyl-5-phenyl-4,5 dihydro-1H-pyrazole-1-carboxamide]"
5,≤ 50,"NCCCC1(c2ccccc2)CC(c2cc(F)ccc2F)=NN1C(=O)N1CCOCC1 (stereo not drawn) [Compound 7-7, 3-[3-(2,5-difluorophenyl)-1-(morpholin-4-ylcarbonyl)-5-phenyl-4,5-dihydro-1H-pyrazol-5-yl]propan-1-amine]"
6,≤ 50,"CC(=O)N1N=C(c2ccccc2Cl)CC1(C)c1cccc(O)c1 (stereo not drawn) [Compound 3-3, 3-[1-acetyl-3-(2-chlorophenyl)-5-methyl-4,5-dihydro-1H-pyrazol-5-yl]phenyl]"
7,≤ 50,"CN1N=C(c2cc(F)ccc2F)CC1(C)c1ccccc1 (stereo not drawn) [Compound 6-2, 3-(2,5-difluorophenyl)-1,5-dimethyl-5-phenyl-4,5-dihydro-1H-pyrazole]"
8,≤ 50,"CCNC(=O)N1N=C(c2cc(F)ccc2F)CC1(CCCNC(=O)c1ncc[nH]1)c1ccccc1 (stereo not drawn) [Compound 10-2, 3-(2,5-difluorophenyl)-N-ethyl-5-{3-[(1H-imidazol-2-ylcarbonyl)amino]propyl}-5-phenyl-4,5-dihydro-1H-pyrazole-1-carboxamide]"
9,≤ 50,"CC(=O)N1N=C(c2cc(F)ccc2F)C(C)C1c1ccccc1 (single isomer, unassigned) [Compound 12-2, 1-acetyl-3-(2,5-difluorophenyl)-4-methyl-5-phenyl-4,5-dihydro-1H-pyrazole]"
10,≤ 50,"O=C(N1CCNCC1)N1N=C(c2cc(F)ccc2F)CC1c1ccccc1 (stereo not drawn) [Compound 5-6, 1-{[3-(2,5-difluorophenyl)-5-phenyl-4,5-dihydro-1H-pyrazol-1-yl]carbonyl}piperazine]"
11,≤ 50,"CC(C)C(=O)N1N=C(c2ccccc2Cl)CC1c1cccc(O)c1 (stereo not drawn) [Compound 2-1, 3-[3-(2-chlorophenyl)-1-isobutyryl-4,5-dihydro-1H-pyrazol-5-yl]phenyl]"
